Measurements reported in patent US10206394B2, “Herbicidal compounds” (Syngenta Participations AG, priority 2014, dated 2019).
Read-outs that look alike come from different tables or passages of the source.

How the values were obtained:
Experiment in all cases: Glasshouse assay for herbicidal activity (pre- and post-emergence), percentage phytotoxicity
Format in all cases: in vivo
Avena fatua (AVEFA) = details: Avena fatua, rate 250 g/ha
Summary of the method: (§1)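 Herbicide was applied to potted plants sown in standard soil, one day after sowing for PRE and after about 12 days for POST. Visual percentage damage ratings followed at 15 DAA (POST) and 20 DAA (PRE).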

[1] = test system: Alopecurus myosuroides (ALOMY); details: Alopecurus myosuroides, rate 250 g/ha
Summary of the method: as §1

[2] = test system: Echinochloa crus-galli (ECHCG); details: Echinochloa crus-galli, rate 250 g/ha
Summary of the method: as §1

Lolium perenne (LOLPE) = details: Lolium perenne, rate 250 g/ha
Summary of the method: as §1

[3] = post-emergence, 360 h, POST-emergence, visual score 15 DAA (100%=total damage, 0%=no damage), read-out: Post-emergence herbicidal activity (percentage phytotoxicity) AVEFA POST
[4] = pre-emergence, 480 h, PRE-emergence, visual score 20 DAA (100%=total damage, 0%=no damage), read-out: Pre-emergence herbicidal activity (percentage phytotoxicity) AVEFA PRE
[5] = post-emergence, 360 h, POST-emergence, visual score 15 DAA (100%=total damage, 0%=no damage), read-out: Post-emergence herbicidal activity (percentage phytotoxicity) ALOMY POST
[6] = pre-emergence, 480 h, PRE-emergence, visual score 20 DAA (100%=total damage, 0%=no damage), read-out: Pre-emergence herbicidal activity (percentage phytotoxicity) ALOMY PRE
[7] = post-emergence, 360 h, POST-emergence, visual score 15 DAA (100%=total damage, 0%=no damage), read-out: Post-emergence herbicidal activity (percentage phytotoxicity) ECHCG POST
[8] = pre-emergence, 480 h, PRE-emergence, visual score 20 DAA (100%=total damage, 0%=no damage), read-out: Pre-emergence herbicidal activity (percentage phytotoxicity) ECHCG PRE
[9] = post-emergence, 360 h, POST-emergence, visual score 15 DAA (100%=total damage, 0%=no damage), read-out: Post-emergence herbicidal activity (percentage phytotoxicity) LOLPE POST
[10] = pre-emergence, 480 h, PRE-emergence, visual score 20 DAA (100%=total damage, 0%=no damage), read-out: Pre-emergence herbicidal activity (percentage phytotoxicity) LOLPE PRE

| SMILES | pest or weed control at 250 g/ha (Avena fatua (AVEFA); [3]) [%] | pest or weed control at 250 g/ha (Avena fatua (AVEFA); [4]) [%] | pest or weed control at 250 g/ha [1, 5] [%] | pest or weed control at 250 g/ha [1, 6] [%] | pest or weed control at 250 g/ha [2, 7] [%] | pest or weed control at 250 g/ha [2, 8] [%] | pest or weed control at 250 g/ha (Lolium perenne (LOLPE); [9]) [%] | pest or weed control at 250 g/ha (Lolium perenne (LOLPE); [10]) [%] |
| --- | --- | --- | --- | --- | --- | --- | --- | --- |
| Cc1cc(OCC(F)(F)F)cc(C)c1C1C(=O)CC(CC(=O)NC(C)C)C1=O (centres unmarked) [Compound B208] | 90 | 80 | 90 | 90 | 100 | 100 | 90 | 80 |
| C=CCNC(=O)CC1CC(=O)C(c2c(C)cc(OCC(F)(F)F)cc2C)C1=O (centres unmarked) [Compound B209] | 80 | 80 | 90 | 100 | 100 | 100 | 80 | 90 |
| Cc1cc(OCC(F)(F)F)cc(C)c1C1C(=O)CC(CC(=O)NCC2CC2)C1=O (centres unmarked) [Compound B210] | 90 | 80 | 100 | 100 | 100 | 100 | 90 | 100 |
| CCN(C)C(=O)CC1CC(=O)C(c2c(C)cc(OCC(F)(F)F)cc2C)C1=O (centres unmarked) [Compound B211] | 90 | 80 | 90 | 90 | 100 | 100 | 90 | – |
| Cc1cc(OCC(F)(F)F)cc(C)c1C1C(=O)CC(CC(=O)N(C)C(C)(C)C)C1=O (centres unmarked) [Compound B212] | 60 | 60 | 90 | 60 | 90 | 100 | 70 | 90 |
| C#CCN(C)C(=O)CC1CC(=O)C(c2c(C)cc(OCC(F)(F)F)cc2C)C1=O (centres unmarked) [Compound B213] | 90 | 50 | 90 | 80 | 100 | 90 | 90 | 70 |
| CCc1cc(OCC(F)(F)F)cc(C)c1C1C(=O)CC(CC(=O)NCc2cccc(F)c2)C1=O (centres unmarked) [Compound B214] | 100 | 90 | 100 | 100 | 100 | 100 | 100 | 90 |
| CCc1cc(OCC(F)(F)F)cc(C)c1C1C(=O)CC(CC(=O)NCc2ccc(OC)cc2)C1=O (centres unmarked) [Compound B215] | 100 | 80 | 100 | 90 | 100 | 90 | 100 | 90 |
| CCc1cc(OCC(F)(F)F)cc(C)c1C1C(=O)CC(CC(=O)NCc2ccc(C#N)cc2)C1=O (centres unmarked) [Compound B216] | 90 | 70 | 100 | 80 | 100 | 90 | 90 | 70 |
| CCc1cc(OCC(F)(F)F)cc(C)c1C1C(=O)CC(CC(=O)NC(C)C)C1=O (centres unmarked) [Compound B217] | 100 | 100 | 100 | 100 | 100 | 100 | 100 | 100 |
| C=CCNC(=O)CC1CC(=O)C(c2c(C)cc(OCC(F)(F)F)cc2CC)C1=O (centres unmarked) [Compound B218] | 100 | 90 | 100 | 100 | 100 | 100 | 100 | 100 |
| CCc1cc(OCC(F)(F)F)cc(C)c1C1C(=O)CC(CC(=O)NCC2CC2)C1=O (centres unmarked) [Compound B219] | 100 | 90 | 100 | 100 | 100 | 90 | 100 | 100 |
| CCc1cc(OCC(F)(F)F)cc(C)c1C1C(=O)CC(CC(=O)N(C)CC)C1=O (centres unmarked) [Compound B220] | 100 | 90 | 100 | 100 | 100 | 100 | 100 | 100 |
| CCc1cc(OCC(F)(F)F)cc(C)c1C1C(=O)CC(CC(=O)N(C)C(C)(C)C)C1=O (centres unmarked) [Compound B221] | 100 | 100 | 100 | 100 | 100 | 100 | 100 | 100 |
| C#CCN(C)C(=O)CC1CC(=O)C(c2c(C)cc(OCC(F)(F)F)cc2CC)C1=O (centres unmarked) [Compound B222] | 100 | 90 | 100 | 100 | 100 | 100 | 100 | 100 |
| Cc1cc(-n2cc(Cl)cn2)cc(C)c1C1C(=O)CC(CC(=O)NCc2cccc(F)c2)C1=O (centres unmarked) [Compound B223] | 100 | 70 | 90 | 90 | 100 | 90 | 80 | 80 |
| COc1ccc(CNC(=O)CC2CC(=O)C(c3c(C)cc(-n4cc(Cl)cn4)cc3C)C2=O)cc1 (centres unmarked) [Compound B224] | 80 | 50 | 80 | 80 | 90 | 70 | 80 | 70 |
| Cc1cc(-n2cc(Cl)cn2)cc(C)c1C1C(=O)CC(CC(=O)NCc2ccc(C#N)cc2)C1=O (centres unmarked) [Compound B225] | 70 | 0 | 60 | 0 | 70 | 0 | 60 | 0 |
